Measurements from the supplement of paper PMC11208160.

Experiment: recombinant UMI read abundance after kanamycin selection (control-corrected) (log10(CPM+1)); higher = more efficient recombination; extreme values may be limits of the assay; sequences stand for … in AGTGCAGAGAAAATCGGCCAGTTTTCTCTGCCTGCAGTCCGCATGCCGTGGGACCCCTTGGGTTCTAACCTGTTGCCTAGATTTATGCAGCGGACTGCCTTTCTCCCAAAGTGATAAACCGG…AGGTTGGTTTCACT; site = the 11-nt donor
Method in brief: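 Values, expressed as log10(CPM+1), derive from recombinant UMI counts converted to CPM, averaged across replicates and scaled by control-derived factors. Plating was with IPTG (0.07 mM) plus kanamycin or unselected, two replicates each. The screen pooled donor and donor-binding-loop pairs for the IS621 bridge recombinase in Escherichia coli.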
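Further: IS621 bridge recombinase in Escherichia coli cells against a fixed T5 target plasmid.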

Sequence: GGGGCACCATGGACCGGTTTTCCCGGTAATCCGTATTTGCG (site GGGGCACCTGG)
- recombinant UMI read abundance (log10): 0

Sequence: GGGGCACCATGGACCGGTTTTCCCGGTAATCCGTATTTGCG (site GGGGCACCTTG)
- recombinant UMI read abundance (log10): 0

Sequence: GGGGCACCATGGACCGGTTTTCCCGGTAATCCGTATTTGCT (site GGGGCACCTAG)
- recombinant UMI read abundance (log10): 0

Sequence: GGGGCACCATGGACCGGTTTTCCCGGTAATCCGTATTTGCT (site GGGGCACCTCG)
- recombinant UMI read abundance (log10): 0.0126

Sequence: GGGGCACCATGGACCGGTTTTCCCGGTAATCCGTATTTGCT (site GGGGCACCTGG)
- recombinant UMI read abundance (log10): 0

Sequence: GGGGCACCATGGACCGGTTTTCCCGGTAATCCGTATTTGCT (site GGGGCACCTTG)
- recombinant UMI read abundance (log10): 0

Sequence: GGGGCACCATGGACCGGTTTTCCCGGTAATCCGTATTTGGA (site GGGGCACCTTA)
- recombinant UMI read abundance (log10): 0

Sequence: GGGGCACCATGGACCGGTTTTCCCGGTAATCCGTATTTGGA (site GGGGCACCTTC)
- recombinant UMI read abundance (log10): 0.0209

Sequence: GGGGCACCATGGACCGGTTTTCCCGGTAATCCGTATTTGGA (site GGGGCACCTTG)
- recombinant UMI read abundance (log10): 0

Sequence: GGGGCACCATGGACCGGTTTTCCCGGTAATCCGTATTTGGA (site GGGGCACCTTT)
- recombinant UMI read abundance (log10): 0.0158

Sequence: GGGGCATCATGGACCGGTTTTCCCGGTAATCCGTATTTGCA (site GGGGCAACTTG)
- recombinant UMI read abundance (log10): 0

Sequence: GGGGCATCATGGACCGGTTTTCCCGGTAATCCGTATTTGCA (site GGGGCACCTTG)
- recombinant UMI read abundance (log10): 0

Sequence: GGGGCATCATGGACCGGTTTTCCCGGTAATCCGTATTTGCA (site GGGGCAGCTTG)
- recombinant UMI read abundance (log10): 0

Sequence: GGGGCATCATGGACCGGTTTTCCCGGTAATCCGTATTTGCA (site GGGGCATCTTG)
- recombinant UMI read abundance (log10): 2.13

Sequence: GGGGTTCCATGGACCGGTTTTCCCGGTAATCCGTATTTGAA (site GGGGTTCCTTT)
- recombinant UMI read abundance (log10): 0

Sequence: GGGTACTCATGGACCGGTTTTCCCGGTAATCCGTATTTGCT (site GGGTACTCTAG)
- recombinant UMI read abundance (log10): 3.34

Sequence: GGGTTCCCATGGACCGGTTTTCCCGGTAATCCGTATTTGTG (site AGGTTCCCTCA)
- recombinant UMI read abundance (log10): 0.00854

Sequence: GGGTTCCCATGGACCGGTTTTCCCGGTAATCCGTATTTGTG (site CGGTTCCCTCA)
- recombinant UMI read abundance (log10): 0.0144

Sequence: GGGTTCCCATGGACCGGTTTTCCCGGTAATCCGTATTTGTG (site GGGTTCCCTCA)
- recombinant UMI read abundance (log10): 0.00899

Sequence: GGGTTCCCATGGACCGGTTTTCCCGGTAATCCGTATTTGTG (site TGGTTCCCTCA)
- recombinant UMI read abundance (log10): 0.0194

Sequence: GGTAAACCATGGACCGGTTTTCCCGGTAATCCGTATTTGAT (site GGTAAACCTAT)
- recombinant UMI read abundance (log10): 0

Sequence: GGTAAGCCATGGACCGGTTTTCCCGGTAATCCGTATTTGGG (site GGTAAGCCTCC)
- recombinant UMI read abundance (log10): 0.023

Sequence: GGTACAACATGGACCGGTTTTCCCGGTAATCCGTATTTGTA (site GGTACAACTTA)
- recombinant UMI read abundance (log10): 0.0152

Sequence: GGTACAACATGGACCGGTTTTCCCGGTAATCCGTATTTGTA (site GGTCCAACTTA)
- recombinant UMI read abundance (log10): 0.00335

Sequence: GGTACAACATGGACCGGTTTTCCCGGTAATCCGTATTTGTA (site GGTGCAACTTA)
- recombinant UMI read abundance (log10): 0.0119

Sequence: GGTACAACATGGACCGGTTTTCCCGGTAATCCGTATTTGTA (site GGTTCAACTTA)
- recombinant UMI read abundance (log10): 0.0127

Sequence: GGTACGCCATGGACCGGTTTTCCCGGTAATCCGTATTTGTT (site GGTACGACTAA)
- recombinant UMI read abundance (log10): 0.0526

Sequence: GGTACGCCATGGACCGGTTTTCCCGGTAATCCGTATTTGTT (site GGTACGCCTAA)
- recombinant UMI read abundance (log10): 0.0149

Sequence: GGTACGCCATGGACCGGTTTTCCCGGTAATCCGTATTTGTT (site GGTACGGCTAA)
- recombinant UMI read abundance (log10): 0.0123

Sequence: GGTACGCCATGGACCGGTTTTCCCGGTAATCCGTATTTGTT (site GGTACGTCTAA)
- recombinant UMI read abundance (log10): 0.426

Sequence: GGTACGTCATGGACCGGTTTTCCCGGTAATCCGTATTTGAT (site GGTACGTCTAA)
- recombinant UMI read abundance (log10): 0.0132

Sequence: GGTACGTCATGGACCGGTTTTCCCGGTAATCCGTATTTGAT (site GGTACGTCTAC)
- recombinant UMI read abundance (log10): 0.00659

Sequence: GGTACGTCATGGACCGGTTTTCCCGGTAATCCGTATTTGAT (site GGTACGTCTAG)
- recombinant UMI read abundance (log10): 0

Sequence: GGTACGTCATGGACCGGTTTTCCCGGTAATCCGTATTTGAT (site GGTACGTCTAT)
- recombinant UMI read abundance (log10): 0.46

Sequence: GGTACGTCATGGACCGGTTTTCCCGGTAATCCGTATTTGTA (site GGTACGTCTAA)
- recombinant UMI read abundance (log10): 0.0713

Sequence: GGTACGTCATGGACCGGTTTTCCCGGTAATCCGTATTTGTA (site GGTACGTCTCA)
- recombinant UMI read abundance (log10): 0.00737

Sequence: GGTACGTCATGGACCGGTTTTCCCGGTAATCCGTATTTGTA (site GGTACGTCTGA)
- recombinant UMI read abundance (log10): 0

Sequence: GGTACGTCATGGACCGGTTTTCCCGGTAATCCGTATTTGTA (site GGTACGTCTTA)
- recombinant UMI read abundance (log10): 0.651

Sequence: GGTACTGCATGGACCGGTTTTCCCGGTAATCCGTATTTGCC (site GATACTGCTGG)
- recombinant UMI read abundance (log10): 0

Sequence: GGTACTGCATGGACCGGTTTTCCCGGTAATCCGTATTTGCC (site GCTACTGCTGG)
- recombinant UMI read abundance (log10): 0.662

Sequence: GGTACTGCATGGACCGGTTTTCCCGGTAATCCGTATTTGCC (site GGTACTGCTGG)
- recombinant UMI read abundance (log10): 1.58

Sequence: GGTACTGCATGGACCGGTTTTCCCGGTAATCCGTATTTGCC (site GTTACTGCTGG)
- recombinant UMI read abundance (log10): 0

Sequence: GGTATGTCATGGACCGGTTTTCCCGGTAATCCGTATTTGTT (site GGTAAGTCTAA)
- recombinant UMI read abundance (log10): 0.00575

Sequence: GGTATGTCATGGACCGGTTTTCCCGGTAATCCGTATTTGTT (site GGTACGTCTAA)
- recombinant UMI read abundance (log10): 0.0321

Sequence: GGTATGTCATGGACCGGTTTTCCCGGTAATCCGTATTTGTT (site GGTAGGTCTAA)
- recombinant UMI read abundance (log10): 0.00327

Sequence: GGTATGTCATGGACCGGTTTTCCCGGTAATCCGTATTTGTT (site GGTATGTCTAA)
- recombinant UMI read abundance (log10): 0.586

Sequence: GGTATTACATGGACCGGTTTTCCCGGTAATCCGTATTTGAG (site GGTATTACTCT)
- recombinant UMI read abundance (log10): 0

Sequence: GGTCACACATGGACCGGTTTTCCCGGTAATCCGTATTTGTC (site GGTCACACTGA)
- recombinant UMI read abundance (log10): 2.3

Sequence: GGTCACCCATGGACCGGTTTTCCCGGTAATCCGTATTTGTT (site GGACACCCTAA)
- recombinant UMI read abundance (log10): 0

Sequence: GGTCACCCATGGACCGGTTTTCCCGGTAATCCGTATTTGTT (site GGCCACCCTAA)
- recombinant UMI read abundance (log10): 0.0117

Sequence: GGTCACCCATGGACCGGTTTTCCCGGTAATCCGTATTTGTT (site GGGCACCCTAA)
- recombinant UMI read abundance (log10): 0.0126

Sequence: GGTCACCCATGGACCGGTTTTCCCGGTAATCCGTATTTGTT (site GGTCACCCTAA)
- recombinant UMI read abundance (log10): 0.00231

Sequence: GGTCAGCCATGGACCGGTTTTCCCGGTAATCCGTATTTGGG (site GGTCAGCCTCC)
- recombinant UMI read abundance (log10): 0.00726

Sequence: GGTCCAACATGGACCGGTTTTCCCGGTAATCCGTATTTGCA (site GGTCCAACTTA)
- recombinant UMI read abundance (log10): 0.0117

Sequence: GGTCCAACATGGACCGGTTTTCCCGGTAATCCGTATTTGCA (site GGTCCAACTTC)
- recombinant UMI read abundance (log10): 0.107

Sequence: GGTCCAACATGGACCGGTTTTCCCGGTAATCCGTATTTGCA (site GGTCCAACTTG)
- recombinant UMI read abundance (log10): 0

Sequence: GGTCCAACATGGACCGGTTTTCCCGGTAATCCGTATTTGCA (site GGTCCAACTTT)
- recombinant UMI read abundance (log10): 0.0134

Sequence: GGTCCAACATGGACCGGTTTTCCCGGTAATCCGTATTTGTA (site AGTCCAACTTA)
- recombinant UMI read abundance (log10): 0.0127

Sequence: GGTCCAACATGGACCGGTTTTCCCGGTAATCCGTATTTGTA (site CGTCCAACTTA)
- recombinant UMI read abundance (log10): 0

Sequence: GGTCCAACATGGACCGGTTTTCCCGGTAATCCGTATTTGTA (site GATCCAACTTA)
- recombinant UMI read abundance (log10): 0.0069

Sequence: GGTCCAACATGGACCGGTTTTCCCGGTAATCCGTATTTGTA (site GCTCCAACTTA)
- recombinant UMI read abundance (log10): 0.00409

Sequence: GGTCCAACATGGACCGGTTTTCCCGGTAATCCGTATTTGTA (site GGACCAACTTA)
- recombinant UMI read abundance (log10): 0.00547

Sequence: GGTCCAACATGGACCGGTTTTCCCGGTAATCCGTATTTGTA (site GGCCCAACTTA)
- recombinant UMI read abundance (log10): 0.0162

Sequence: GGTCCAACATGGACCGGTTTTCCCGGTAATCCGTATTTGTA (site GGGCCAACTTA)
- recombinant UMI read abundance (log10): 0.00345

Sequence: GGTCCAACATGGACCGGTTTTCCCGGTAATCCGTATTTGTA (site GGTACAACTTA)
- recombinant UMI read abundance (log10): 0.00331

Sequence: GGTCCAACATGGACCGGTTTTCCCGGTAATCCGTATTTGTA (site GGTCAAACTTA)
- recombinant UMI read abundance (log10): 0.0208

Sequence: GGTCCAACATGGACCGGTTTTCCCGGTAATCCGTATTTGTA (site GGTCCAACTAA)
- recombinant UMI read abundance (log10): 0.0196

Sequence: GGTCCAACATGGACCGGTTTTCCCGGTAATCCGTATTTGTA (site GGTCCAACTCA)
- recombinant UMI read abundance (log10): 0.0175

Sequence: GGTCCAACATGGACCGGTTTTCCCGGTAATCCGTATTTGTA (site GGTCCAACTGA)
- recombinant UMI read abundance (log10): 0

Sequence: GGTCCAACATGGACCGGTTTTCCCGGTAATCCGTATTTGTA (site GGTCCAACTTA)
- recombinant UMI read abundance (log10): 0.431

Sequence: GGTCCAACATGGACCGGTTTTCCCGGTAATCCGTATTTGTA (site GGTCCAACTTC)
- recombinant UMI read abundance (log10): 0.0212

Sequence: GGTCCAACATGGACCGGTTTTCCCGGTAATCCGTATTTGTA (site GGTCCAACTTG)
- recombinant UMI read abundance (log10): 0.016

Sequence: GGTCCAACATGGACCGGTTTTCCCGGTAATCCGTATTTGTA (site GGTCCAACTTT)
- recombinant UMI read abundance (log10): 0.0114

Sequence: GGTCCAACATGGACCGGTTTTCCCGGTAATCCGTATTTGTA (site GGTCCACCTTA)
- recombinant UMI read abundance (log10): 0.011

Sequence: GGTCCAACATGGACCGGTTTTCCCGGTAATCCGTATTTGTA (site GGTCCAGCTTA)
- recombinant UMI read abundance (log10): 0.015
